# According to patent US20200253877A1, “GEMCABENE, PHARMACEUTICALLY ACCEPTABLE SALTS THEREOF, COMPOSITIONS THEREOF AND METHODS OF USE THEREFOR” (NEUROBO PHARMACEUTICALS, INC., priority 2018, published 2020):
# Assays:
# [1] = Aqueous solubility of gemcabene calcium salt forms over 24 hours (HPLC concentration, XRPD form); format: physicochemical; conditions: slurry in water, approximately 25° C.
# Procedure: To each vial, approximately 3 mL to 4 mL water were added and the samples were mixed at ambient temperature (approximately 25° C.) for approximately 24 hours. […] From each vial, samples of the slurries were taken after 1, 4, and 24 hours, which were separated by centrifugation. The solids were separated by centrifugation and analyzed by XRPD for solid form and by HPLC for concentration.
# [2] = Stability study of gemcabene calcium salt forms (XRPD form, HPLC/CAD purity); format: physicochemical
# Procedure: The stability studies were carried out using storage conditions at a) 40° C. and 75% relative humidity (RH), b) at 80° C. and c) at ambient temperature (approximately 22° C.). After 7 days and 14 days, the samples were removed from the relevant storage conditions and initially analyzed by XRPD to identify any form changes. The samples were then analyzed by HPLC/CAD (high-performance liquid chromatography equipped with a charged aerosol detector) for purity, with all solid purity values given on a w/w % basis.
compound,measurement,setting,value
CC(C)(CCCCOCCCCC(C)(C)C(=O)[O-])C(=O)[O-].[Ca+2] [amorphous gemcabene calcium salt],change in polymorphic form during the test period (XRPD),[1]; 24 hours,"conversion to a new polymorph, gemcabene calcium salt hydrate Crystal Form 6"
same,change in concentration (HPLC) during the experiment,"[1]; sampled 1, 4, 24 hours",initial increase in concentration after 4 hours followed by a slight decrease in the concentration after 24 hours
same,change in form (XRPD),"[2]; 2-week study, 40° C./75% RH, 80° C. and ambient",No change in the form
same,purity (HPLC/CAD) compared to the starting form,"[2]; after 2 weeks storage, all 3 storage conditions",drop in purity
